Measured values: patent publication US20090311217A1, “3-SUBSTITUTED-1H-INDOLE COMPOUNDS, THEIR USE AS MTOR KINASE AND PI3 KINASE INHIBITORS, AND THEIR SYNTHESES” (priority 2008, published 2009)
Read-outs that look alike come from different tables or passages of the source.

Key:
Assay type in all cases: biochemical
[1] = target: PI3K-alpha (Homo sapiens, UniProt P42336); assay: PI3K-alpha fluorescence polarization assay
[2] = target: T1, human TOR (Homo sapiens, UniProt P42345); assay: mTOR enzyme assay (DELFIA, His6-S6K substrate)
T1 construct: FLAG

[3] = target: PI3K-gamma (Homo sapiens, UniProt P48736); assay: PI3K-gamma fluorescence polarization assay; details: PI3Kγ Avg. IC50
Procedure, shortened: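 Reactions used 5 ng enzyme with 2.5 μM diC8-PI(4,5)P2 and 25 μM ATP in 5 mM HEPES pH 7, 2.5 mM MgCl2, run 1 h at 25° C. After an EDTA quench (10 mM), 100 nM GST-GRP1 PH domain and 5 nM BODIPY-TMR-IP4 were added and fluorescence polarization was read.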

[4] = read-out: mTOR Kinase Avg. IC50

PI3K-alpha, sequence (P42336 whole entry, species assumed): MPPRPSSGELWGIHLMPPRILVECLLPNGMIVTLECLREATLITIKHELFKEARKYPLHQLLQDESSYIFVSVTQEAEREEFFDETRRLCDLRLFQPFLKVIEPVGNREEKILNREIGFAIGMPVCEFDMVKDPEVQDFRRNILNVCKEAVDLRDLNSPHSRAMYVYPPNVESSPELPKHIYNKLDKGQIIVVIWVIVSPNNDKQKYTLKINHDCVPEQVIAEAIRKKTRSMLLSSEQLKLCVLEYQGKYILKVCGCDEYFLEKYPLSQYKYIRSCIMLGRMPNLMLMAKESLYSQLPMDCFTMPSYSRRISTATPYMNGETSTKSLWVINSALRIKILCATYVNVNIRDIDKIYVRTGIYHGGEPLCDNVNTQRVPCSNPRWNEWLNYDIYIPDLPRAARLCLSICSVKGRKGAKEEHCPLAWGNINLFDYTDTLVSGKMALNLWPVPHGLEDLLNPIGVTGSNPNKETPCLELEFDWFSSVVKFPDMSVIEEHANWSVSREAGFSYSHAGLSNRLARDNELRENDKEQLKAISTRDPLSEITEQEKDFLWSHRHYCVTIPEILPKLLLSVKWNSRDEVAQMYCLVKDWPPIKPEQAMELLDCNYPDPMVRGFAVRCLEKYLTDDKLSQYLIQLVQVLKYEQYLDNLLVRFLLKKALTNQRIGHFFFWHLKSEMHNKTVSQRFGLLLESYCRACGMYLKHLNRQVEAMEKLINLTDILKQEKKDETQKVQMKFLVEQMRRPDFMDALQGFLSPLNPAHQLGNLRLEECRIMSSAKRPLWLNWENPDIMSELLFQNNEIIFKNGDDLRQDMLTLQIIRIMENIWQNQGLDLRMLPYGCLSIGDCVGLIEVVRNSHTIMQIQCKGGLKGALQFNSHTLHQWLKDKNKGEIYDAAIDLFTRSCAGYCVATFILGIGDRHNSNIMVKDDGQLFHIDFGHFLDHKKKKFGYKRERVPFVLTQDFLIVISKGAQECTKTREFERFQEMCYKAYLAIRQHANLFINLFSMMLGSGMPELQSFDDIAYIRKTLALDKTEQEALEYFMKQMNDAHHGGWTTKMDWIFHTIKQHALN
PI3K-alpha, sequence (P27986 whole entry partner, species assumed): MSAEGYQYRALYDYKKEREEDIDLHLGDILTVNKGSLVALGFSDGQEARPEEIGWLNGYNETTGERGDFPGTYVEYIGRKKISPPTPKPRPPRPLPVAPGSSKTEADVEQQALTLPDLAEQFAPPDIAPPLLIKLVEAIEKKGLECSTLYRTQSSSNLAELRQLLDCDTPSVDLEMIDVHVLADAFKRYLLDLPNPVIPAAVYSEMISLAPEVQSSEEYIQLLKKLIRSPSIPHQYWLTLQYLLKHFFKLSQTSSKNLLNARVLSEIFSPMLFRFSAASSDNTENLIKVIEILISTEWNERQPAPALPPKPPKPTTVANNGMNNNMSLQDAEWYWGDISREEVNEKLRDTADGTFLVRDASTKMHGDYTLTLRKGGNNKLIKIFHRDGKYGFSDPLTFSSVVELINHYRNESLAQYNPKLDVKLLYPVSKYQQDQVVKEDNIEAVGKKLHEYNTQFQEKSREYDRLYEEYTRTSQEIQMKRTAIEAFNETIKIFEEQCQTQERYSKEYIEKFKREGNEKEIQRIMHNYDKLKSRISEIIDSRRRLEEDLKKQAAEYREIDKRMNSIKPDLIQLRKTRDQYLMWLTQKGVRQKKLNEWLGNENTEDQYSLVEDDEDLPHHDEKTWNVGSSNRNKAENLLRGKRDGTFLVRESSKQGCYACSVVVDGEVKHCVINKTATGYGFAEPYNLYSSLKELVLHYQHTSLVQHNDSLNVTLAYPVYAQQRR
PI3K-gamma, sequence (P48736 whole entry, species assumed, the tested form may be a part): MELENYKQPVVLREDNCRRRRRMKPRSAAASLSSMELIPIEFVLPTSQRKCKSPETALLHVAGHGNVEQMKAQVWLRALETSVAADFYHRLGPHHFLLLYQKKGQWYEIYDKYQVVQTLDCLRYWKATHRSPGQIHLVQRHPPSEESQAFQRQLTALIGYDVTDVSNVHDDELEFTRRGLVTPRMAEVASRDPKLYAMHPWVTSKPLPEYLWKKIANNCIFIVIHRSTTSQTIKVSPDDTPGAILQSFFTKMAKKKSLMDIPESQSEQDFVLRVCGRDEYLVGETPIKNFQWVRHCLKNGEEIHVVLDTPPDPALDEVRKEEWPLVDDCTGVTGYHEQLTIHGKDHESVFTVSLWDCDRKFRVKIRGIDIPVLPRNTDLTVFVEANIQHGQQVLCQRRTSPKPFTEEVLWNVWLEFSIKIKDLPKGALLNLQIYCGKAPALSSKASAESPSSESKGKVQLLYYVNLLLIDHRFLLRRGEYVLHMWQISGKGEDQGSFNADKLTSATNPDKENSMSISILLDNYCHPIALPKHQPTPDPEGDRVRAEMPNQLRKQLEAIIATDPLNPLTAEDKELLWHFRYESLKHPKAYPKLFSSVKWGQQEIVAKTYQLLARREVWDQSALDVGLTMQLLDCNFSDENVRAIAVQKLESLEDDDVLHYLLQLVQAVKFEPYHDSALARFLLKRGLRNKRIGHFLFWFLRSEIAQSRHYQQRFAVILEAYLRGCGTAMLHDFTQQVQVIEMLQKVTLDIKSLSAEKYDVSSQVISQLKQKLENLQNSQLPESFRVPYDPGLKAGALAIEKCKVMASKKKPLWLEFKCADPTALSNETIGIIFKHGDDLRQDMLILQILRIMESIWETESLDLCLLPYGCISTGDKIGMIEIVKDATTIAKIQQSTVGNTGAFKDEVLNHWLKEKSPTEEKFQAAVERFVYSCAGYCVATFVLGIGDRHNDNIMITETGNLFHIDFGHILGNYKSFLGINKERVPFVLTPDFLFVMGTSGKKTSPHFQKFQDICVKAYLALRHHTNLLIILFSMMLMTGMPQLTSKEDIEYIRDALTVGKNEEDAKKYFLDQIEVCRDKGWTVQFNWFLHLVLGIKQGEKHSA

| IC50 ([1]; read-out: PI3Kα Avg. IC50) [nM] | IC50 [2, 4] [nM] | IC50 [3] [nM] | SMILES | IC50 ([1]; PI3Kα Avg. IC50) [nM] | IC50 ([2]; mTOR Kinase Avg. IC50) [nM] |
| --- | --- | --- | --- | --- | --- |
| > 10000 | > 20000 | – | O=C1C(=Cc2c(-c3ccccc3)[nH]c3ccccc23)Oc2ccccc21 [Example 2, 2-[(2-phenyl-1H-indol-3-yl)methylene]-1-benzofuran-3(2H)-one] | – | – |
| > 10000 | > 20000 | – | Cn1c(-c2ccccc2)c(C=C2Oc3ccccc3C2=O)c2ccccc21 [Example 3, 2-[(1-methyl-2-phenyl-1H-indol-3-yl)methylene]-1-benzofuran-3(2H)-one] | – | – |
| 12300 | > 20000 | – | Cn1cc(C=C2Oc3ccccc3C2=O)c2ccccc21 [Example 4, 2-[(1-methyl-1H-indol-3-yl)methylene]-1-benzofuran-3(2H)-one] | – | – |
| > 10000 | > 20000 | – | O=C1C(=Cc2c[nH]c3ccccc23)Oc2cc(O)ccc21 [Example 5, 6-hydroxy-2-(1H-indol-3-ylmethylene)-1-benzofuran-3(2H)-one] | – | – |
| 2400 | 2850 | – | O=C1C(=Cc2c(-c3ccccc3)[nH]c3ccccc23)Oc2cc(O)ccc21 [Example 6, 6-hydroxy-2-[(2-phenyl-1H-indol-3-yl)methylene]-1-benzofuran-3(2H)-one] | – | – |
| > 10000 | > 20000 | – | Cn1cc(C=C2Oc3cc(O)ccc3C2=O)c2ccccc21 [Example 8, 6-hydroxy-2-[(1-methyl-1H-indol-3-yl)methylene]-1-benzofuran-3(2H)-one] | – | – |
| – | – | – | O=C1C(=Cc2c[nH]c3ccccc23)Oc2cc(O)cc(O)c21 [Example 13, 4,6-dihydroxy-2-(1H-indol-3-ylmethylene)-1-benzofuran-3(2H)-one] | 6750 | 9200 |
| > 10000 | > 20000 | – | O=C1/C(=C/c2c[nH]c3ccc(OCc4ccccc4)cc23)Oc2cc(O)ccc21 [Example 34, (2Z)-2-{[5-(benzyloxy)-1H-indol-3-yl]methylene}-6-hydroxy-1-benzofuran-3(2H)-one] | – | – |
| 3420 | > 5000 | – | Cc1ccc2c(/C=C3\Oc4cc(O)cc(O)c4C3=O)c[nH]c2c1 [Example 48, (2Z)-4,6-dihydroxy-2-[(6-methyl-1H-indol-3-yl)methylene]-1-benzofuran-3(2H)-one] | – | – |
| 2430 | > 5000 | – | Cc1cccc2c(/C=C3\Oc4cc(O)cc(O)c4C3=O)c[nH]c12 [Example 49, (2Z)-4,6-dihydroxy-2-[(7-methyl-1H-indol-3-yl)methylene]-1-benzofuran-3(2H)-one] | – | – |
| > 10000 | > 5000 | – | O=C1/C(=C/c2cn(Cc3ccccc3)c3ccccc23)Oc2cc(O)cc(O)c21 [Example 51, (2Z)-2-[(1-benzyl-1H-indol-3-yl)methylene]-4,6-dihydroxy-1-benzofuran-3(2H)-one] | – | – |
| 1890 | > 5000 | – | O=C1C(=Cc2c[nH]c3ccc(OCc4ccccc4)cc23)Oc2cc(O)cc(O)c21 [Example 52, 2-{[5-(benzyloxy)-1H-indol-3-yl]methylene}-4,6-dihydroxy-1-benzofuran-3(2H)-one] | – | – |
| 431 | > 20000 | – | O=C1/C(=C/c2c[nH]c3ccc(Cl)cc23)Oc2c1ccc(O)c2O [Example 63, (2Z)-2-[(5-chloro-1H-indol-3-yl)methylene]-6,7-dihydroxy-1-benzofuran-3(2H)-one] | – | – |
| – | – | – | O=C1C(=Cc2c(-c3ccccn3)[nH]c3ccccc23)Oc2cc(O)cc(O)c21 [Example 72, 4,6-dihydroxy-2-[(2-pyridin-2-yl-1H-indol-3-yl)methylene]-1-benzofuran-3(2H)-one] | 3650 | 21.2 |
| 12000 | 9800 | – | O=C1C(=Cc2c[nH]c3ccccc23)Oc2cccc(O)c21 [Example 74, 4-hydroxy-2-(1H-indol-3-ylmethylene)-1-benzofuran-3(2H)-one] | – | – |
| 2520 | 5900 | – | O=C1C(=Cc2c(-c3ccccc3)[nH]c3ccccc23)Oc2cccc(O)c21 [Example 75, 4-hydroxy-2-[(2-phenyl-1H-indol-3-yl)methylene]-1-benzofuran-3(2H)-one] | – | – |
| > 10000 | 10000 | – | O=C1C(=Cc2c(-c3ccc(Cl)cc3)[nH]c3ccccc23)Oc2cccc(O)c21 [Example 76, 2-{[2-(4-chlorophenyl)-1H-indol-3-yl]methylene}-4-hydroxy-1-benzofuran-3(2H)-one] | – | – |

| IC50 ([1]; read-out: PI3Kα Avg. IC50) [nM] | IC50 [2, 4] [nM] | IC50 [3] [nM] | SMILES | IC50 ([1]; PI3Kα Avg. IC50) [nM] | IC50 ([2]; mTOR Kinase Avg. IC50) [nM] |
| --- | --- | --- | --- | --- | --- |
| > 10000 | 17500 | – | O=C1C(=Cc2c[nH]c3ccc(Br)cc23)Oc2cccc(O)c21 [Example 77, 2-[(5-bromo-1H-indol-3-yl)methylene]-4-hydroxy-1-benzofuran-3(2H)-one] | – | – |
| > 10000 | 490 | – | O=C1C(=Cc2c(Br)[nH]c3ccccc23)Oc2cc(O)cc(O)c21 [Example 80, 2-[(2-bromo-1H-indol-3-yl)methylene]-4,6-dihydroxy-1-benzofuran-3(2H)-one] | – | – |
| 234 | > 20000 | – | O=C1C(=Cc2c(Br)[nH]c3ccccc23)Oc2c1ccc(O)c2O [Example 81, 2-[(2-bromo-1H-indol-3-yl)methylene]-6,7-dihydroxy-1-benzofuran-3(2H)-one] | – | – |
| 2040 | 2600 | – | Cc1c(C=C2Oc3cc(O)cc(O)c3C2=O)c2ccccc2n1CCCl [Example 92, 2-{[1-(2-chloroethyl)-2-methyl-1H-indol-3-yl]methylene}-4,6-dihydroxy-1-benzofuran-3(2H)-one] | – | – |
| 2380 | > 5000 | – | Cc1c(C=C2Oc3cc(O)cc(O)c3C2=O)c2ccccc2n1CCCCl [Example 93, 2-{[1-(3-chloropropyl)-2-methyl-1H-indol-3-yl]methylene}-4,6-dihydroxy-1-benzofuran-3(2H)-one] | – | – |
| 478 | – | 2770 | COc1ccc2c(c1)c(C=C1Oc3cccc(O)c3C1=O)c(C)n2CCCCN1CCN(CCO)CC1 [Example 137, 4-hydroxy-2-[(1-{4-[4-(2-hydroxyethyl)piperazin-1-yl]butyl}-5-methoxy-2-methyl-1H-indol-3-yl)methylene]-1-benzofuran-3(2H)-one] | – | – |
| 1580 | 2900 | – | O=C1C(=Cc2c(-c3ccccc3)n(Cc3cccnc3)c3ccccc23)Oc2cc(O)cc(O)c21 [Example 153, 4,6-dihydroxy-2-{[2-phenyl-1-(pyridin-3-ylmethyl)-1H-indol-3-yl]methylene}-1-benzofuran-3(2H)-one] | – | – |
| 1580 | 540 | – | O=C1C(=Cc2c(-c3ccccc3)n(Cc3ccncc3)c3ccccc23)Oc2cc(O)cc(O)c21 [Example 154, 4,6-dihydroxy-2-{[2-phenyl-1-(pyridin-4-ylmethyl)-1H-indol-3-yl]methylene}-1-benzofuran-3(2H)-one] | – | – |
| 1010 | 820 | – | O=C1C(=Cc2c(-c3ccccc3)n(CCN3CCNCC3)c3ccccc23)Oc2cc(O)cc(O)c21 [Example 160, 4,6-dihydroxy-2-{[2-phenyl-1-(2-piperazin-1-ylethyl)-1H-indol-3-yl]methylene}-1-benzofuran-3(2H)-one] | – | – |
| 1760 | 600 | – | NC(=O)Cn1c(-c2ccccc2)c(C=C2Oc3cc(O)cc(O)c3C2=O)c2ccccc21 [Example 161, 2-{3-[(4,6-dihydroxy-3-oxo-1-benzofuran-2(3H)-ylidene)methyl]-2-phenyl-1H-indol-1-yl}acetamide] | – | – |
| 2450 | > 20000 | – | Cc1[nH]c2ccc([N+](=O)[O-])cc2c1C=C1Oc2cc(O)cc(O)c2C1=O [Example 162, 4,6-dihydroxy-2-[(2-methyl-5-nitro-1H-indol-3-yl)methylene]-1-benzofuran-3(2H)-one] | – | – |
| 502 | – | 1750 | COc1cc2[nH]cc(C=C3Oc4cc(O)cc(O)c4C3=O)c2cc1OC [Example 181, 2-[(5,6-dimethoxy-1H-indol-3-yl)methylene]-4,6-dihydroxy-1-benzofuran-3(2H)-one] | – | – |
| 3500 | – | > 10000 | N#CCCCn1cc(C=C2Oc3cc(O)cc(O)c3C2=O)c2cc(F)ccc21 [Example 231, 4-{3-[(4,6-dihydroxy-3-oxo-1-benzofuran-2(3H)-ylidene)methyl]-5-fluoro-1H-indol-1-yl}butanenitrile] | – | – |
| > 5740 | – | 2690 | Cn1cc(C=C2Oc3cc(O)cc(O)c3C2=O)c2c(-c3ccccc3)cccc21 [Example 268, 4,6-dihydroxy-2-[(1-methyl-4-phenyl-1H-indol-3-yl)methylene]-1-benzofuran-3(2H)-one] | – | – |
| 287 | – | 255 | O=C1/C(=C/c2c(-c3ccccc3)[nH]c3ccccc23)Sc2ccccc21 [Example 274, (2Z)-2-[(2-phenyl-1H-indol-3-yl)methylene]-1-benzothiophen-3(2H)-one] | – | – |
| 268 | – | 264 | O=C1/C(=C/c2c(-c3ccc(F)cc3)[nH]c3ccccc23)Sc2ccccc21 [Example 277, (2Z)-2-{[2-(4-fluorophenyl)-1H-indol-3-yl]methylene}-1-benzothiophen-3(2H)-one] | – | – |

| SMILES | IC50 ([1]; read-out: PI3Kα Avg. IC50) [nM] | IC50 [2, 4] [nM] | IC50 [3] [nM] | IC50 ([1]; PI3Kα Avg. IC50) [nM] | IC50 ([2]; mTOR Kinase Avg. IC50) [nM] |
| --- | --- | --- | --- | --- | --- |
| Cn1c(-c2ccccc2)c(C=C2Oc3cc(O)cc(O)c3C2=O)c2ccccc21 [Example 15, 4,6-dihydroxy-2-[(1-methyl-2-phenyl-1H-indol-3-yl)methylene]-1-benzofuran-3(2H)-one] | – | 90 | – | 2660 | – |
| O=C1/C(=C/c2c(-c3ccc(F)cc3)[nH]c3ccccc23)Oc2cc(O)cc(O)c21 [Example 46, (2Z)-2-{[2-(4-fluorophenyl)-1H-indol-3-yl]methylene}-4,6-dihydroxy-1-benzofuran-3(2H)-one] | – | 123 | – | 1580 | – |
| Cc1[nH]c2ccccc2c1/C=C1\Oc2cc(O)cc(O)c2C1=O [Example 47, (2Z)-4,6-dihydroxy-2-[(2-methyl-1H-indol-3-yl)methylene]-1-benzofuran-3(2H)-one] | – | 500 | – | 3200 | – |
